Source: US6545033B1, “Fused 1-(2,6-dichloro-4-trifluoromethylphenyl)-pyrazoles, the synthesis thereof and the use thereof as pesticides” (3-Dimensional Pharmaceuticals, Inc., priority 1999, dated 2003)

Assays:
Housefly GABA receptors = molecular target: T1, Housefly GABA receptors (Musca domestica, UniProt Q75NA5); assay: In vitro assay of binding to housefly GABA receptors (3H-EBOB displacement, housefly neuronal membranes); conditions: for Compounds with the most activity (housefly 3H-EBOB binding): housefly neuronal membranes
T1 sequence (Q75NA5 30-576): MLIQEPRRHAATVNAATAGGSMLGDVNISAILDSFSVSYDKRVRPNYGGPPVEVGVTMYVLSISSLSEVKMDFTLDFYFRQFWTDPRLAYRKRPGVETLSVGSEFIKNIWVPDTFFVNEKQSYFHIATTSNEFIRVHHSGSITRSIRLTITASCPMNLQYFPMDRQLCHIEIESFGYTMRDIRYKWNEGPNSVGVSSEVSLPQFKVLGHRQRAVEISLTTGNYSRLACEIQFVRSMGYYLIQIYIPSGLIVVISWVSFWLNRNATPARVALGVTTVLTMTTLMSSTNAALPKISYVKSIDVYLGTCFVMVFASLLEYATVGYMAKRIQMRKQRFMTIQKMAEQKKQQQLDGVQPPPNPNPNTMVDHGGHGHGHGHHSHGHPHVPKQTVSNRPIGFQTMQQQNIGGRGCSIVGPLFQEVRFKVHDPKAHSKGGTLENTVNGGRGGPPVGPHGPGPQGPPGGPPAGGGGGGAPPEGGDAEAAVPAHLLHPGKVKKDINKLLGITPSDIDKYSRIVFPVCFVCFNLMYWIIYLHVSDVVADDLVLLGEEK
Method: Newly emerged houseflies (Musca domestica, available from Rincon-Vitova Insectaries, Inc., Ventura, Calif.) were sedated with carbon dioxide gas, collected in 50 mL polypropylene conical tubes, and immediately frozen by submersion in liquid nitrogen. Unless specified, all of the following work was performed at 0-4° C. After removal from liquid nitrogen, the tubes of frozen houseflies were shaken vigorously by hand to decapitate the houseflies. […] Contaminating wings were removed by holding a vacuum nozzle approximately 4 cm above the heads, and contaminating legs were separated from the heads by passage through a #15 mesh screen. All remaining debris were removed from the pool of heads using forceps. The purified heads were collected in 50 mL polypropylene conical tubes and stored in liquid nitrogen until processed further.
About 13 g of purified housefly heads were suspended in about 65 mL of 10% sucrose buffer (10% sucrose (w/w) in 10 mM Tris, pH 7.5). The heads were homogenized for about 1 minute, using a Tissumizer™ homogenizer equipped with a SDT-100EN probe (available from Tekmar-Dohrmann, Cincinnati, Ohio) running at 70% of its maximum speed. The extract was further homogenized by about 5 passes through a 40 mL Dounce tissue grinder. The extract was then centrifuged at about 500×g for about 5 minutes to pellet large debris. The supernatant was collected; the pellet was washed with an additional 65 mL of 10% sucrose buffer and centrifuged at 500×g for about 5 minutes. The second supernatant was collected and combined with the first supernatant, and the pool was filtered through a 100μ CellMicroSieve™ mesh to remove residual debris (available from BioDesign of New York, Carmel, N.Y.).
Neuronal membranes containing active GABA receptors were collected via sucrose density centrifugation by the following method. About 8 mL of 35% sucrose buffer (35% sucrose (w/w) in 10 mM Tris, pH 7.5), were dispensed into each of six 38 mL ultracentrifuge tubes. These layers were overlaid with about 8 mL of 20% sucrose buffer (20% sucrose (w/w) in 10 mM Tris, pH 7.5), and finally overlaid with about 20 mL of filtered extract supernatant. The tubes were centrifuged at about 120,000×g for about 100 min at 4° C. After centrifugation, the 10% sucrose layer and most of the 20% sucrose layer were removed by aspiration. The membranes at the interface of the 20% sucrose and 35% sucrose layers were collected, pooled, diluted with 10% sucrose buffer, and centrifuged at about 120,000×g for about 40 min at 4° C. After centrifugation, the supernatant was discarded, and the pellets resuspended in about 6.5 mL of assay buffer (10 mM phosphate, 300 mM NaCl, pH 7.5) using a 10 mL Potter-Elvehjem tissue grinder with a Teflon® pestle. Protein concentration was determined by the Bio-Rad Protein Assay (available from Bio-Rad Laboratories, Hercules, Calif.) using bovine serum albumin as a standard. The membranes were aliquoted and stored in liquid nitrogen for up to 2 months before use.
Housefly neuronal membranes were prepared as described above from housefly heads. Test compounds were dissolved in dimethylsulfoxide (DMSO) at concentrations ranging from about 2 nM to about 100 mM. About 1 μL of a dissolved test compound was dispensed into a well of a 96-well polystyrene plate. About 100 μL of ice cold assay buffer (10 mM phosphate, 300 mM NaCl, pH 7.5) containing 5.2 nM 4′-Ethynyl-4-n-[2,3-^3H2]propylbicycloorthobenzoate (^3H-EBOB, 38 Ci/mmol, available from NEN Life Science Products, Boston, Mass.) was added to the well, followed by about 100 μL of ice cold assay buffer containing about 0.5-1.0 mg/mL housefly neuronal membranes. Control wells were prepared the same way except that the housefly neuronal membranes were omitted from the “negative” wells, and the test compounds were omitted from the “positive” wells. […]

[1] = tested on: cat fleas (Ctenocephalides felis), CO Fleas; assay: In vivo cat flea contact assay, CO fleas; conditions: contact with treated filter disk in vial, about 24-30 hours, mM = concentration of the DMSO solution, about 1 μL applied; for LC50: Ctenocephalides felis, topical, read-out: LD50 (mM), CO Fleas
Method: (§1) This example describes an in vivo assay to screen compounds for their ability to kill cat fleas via contact.
(§2) Test compounds were dissolved in dimethylsulfoxide (DMSO) at concentrations ranging from about 0.05 mM to about 100 mM. About 1 μL of dissolved test compound was dispensed onto a 6 mm (diameter) GF/C filter disk (filter material available from Whatman Inc., Clifton, N.J.) in the bottom of a 4 mL screw-top glass vial and allowed to air dry 24-48 hours. Positive control vials were prepared in the same manner except that no test compounds were dissolved in the DMSO. About 20 newly emerged cat fleas (Ctenocephalides felis) were sedated by refrigeration at 0-4° C. and transferred to each vial. Each vial was sealed with a thin, perforated Teflon™ septum secured by an open top screw cap and held vertically in the dark. After about 24-30 hours, the healthy, moribund, and dead cat fleas in each vial were counted. The percentage of dead cat fleas in each vial was then calculated using the formula M=100(D−(FC/100))/(F−(FC/100)), in which M is the percentage of dead cat fleas due to the addition of the test compound, D is the number of dead cat fleas in the test vial, F is the total number of cat fleas in the test vial, and C is the percentage of dead cat fleas in the control vials.

[2] = molecular target: Mouse Brain GABA Receptors; assay: In vitro assay of binding to mouse brain GABA receptors (3H-EBOB displacement, mouse brain membranes); conditions: displacement of 5.2 nM 3H-EBOB, about 45 min at about 24° C.
Method: Mouse brains were obtained from carbon dioxide-asphyxiated Swiss-Webster mice, washed with phosphate-buffered saline, and used either fresh or after storage at −80° C. for up to 10 months. Unless specified, all preparation steps were performed at 0-4° C. For each preparation, 20 brains were suspended in about 40 mL of 0.32 M sucrose and homogenized for about 2 minutes, using a Tissumizer™ homogenizer equipped with a SDT-100EN probe (available from Tekmar-Dohrmann, Cincinnati, Ohio) running at 50% of its maximum speed. The extract was centrifuged for about 5 min at about 1000×g to pellet intact brain tissue. The supernatant was retained and the pellet washed with an additional 40 mL of 0.32 M sucrose and centrifuged at 1000×g for about 5 minutes. The 1000×g supernatants were combined and centrifuged at about 10,000×g for about 20 min to pellet membranes. The 10,000×g supernatant was discarded and the pellet was resuspended in about 20 mL of water containing 1 mM EDTA. The sample was dialyzed two times for about 3 hours each against about 3 L of water. The sample was then centrifuged at about 25,000×g for about 30 min to pellet the membranes. After centrifugation, the supernatant was discarded and the wet pellet recovered. The protein concentration of the pellet was determined by the Bio-Rad Protein Assay (available from Bio-Rad Laboratories, Hercules, Calif.) using bovine serum albumin as a standard. The membranes were aliquoted and stored at −80° C. for up to 6 months before use.
Mouse brain membranes were prepared as described above from dissected mouse brains. Test compounds were dissolved in dimethylsulfoxide (DMSO) at concentrations ranging from about 2 nM to about 100 mM. About 1 μL of a dissolved test compound was dispensed into a well of a 96-well polystyrene plate. About 100 μL of ice cold assay buffer (10 mM phosphate, 300 mM NaCl, pH 7.5) containing 5.2 nM 4′-Ethynyl-4-n-[2,3-^3H2]propylbicycloorthobenzoate (^3H-EBOB, 38 Ci/mmol, available from NEN Life Science Products, Boston, Mass.) was added to the well, followed by about 100 μL of ice cold assay buffer containing about 0.25-0.5 mg/mL mouse brain membranes. Control wells were prepared the same way except that the mouse brain membranes were omitted from the “negative” wells, and the test compounds were omitted from the “positive” wells. The samples were incubated for about 45 min at about 24° C. and then filtered on a 0.1% (w/v) polyethylenimine-soaked glass fiber Filtermat A (available from EG&G Wallac Inc., Gaithersburg, Md.) followed by four 100 mL rinses of cold assay buffer using a Harvester 96® cell harvester (available from Tomtec, Orange, Conn.). The filtermat was air dried and radioactivity bound to the filtermat was detected with either a 1450 MicroBeta® Trilux scintillation counter (available from EG&G Wallac Inc.) or a Topcount NXT™ scintillation counter (available from Packard Instrument Co., Meriden, Conn.) using standard methods.
Specific binding was considered to be the difference between total ^3H bound to the mouse brain membranes in the absence of any inhibitors and nonspecific ^3H bound to the mouse brain membranes upon the addition of 5 μM unlabeled EBOB. The average radioactivity contained in the “negative” wells was subtracted from each of the assay wells. […] Compounds that displaced ^3H-EBOB specifically bound to the mouse brain membranes were tested at 24-48 different final concentrations, varying from about 1 nM to about 125 μM, in order to determine the concentration at which 50% of the maximum inhibition due to the addition of that compound was observed (IC50). […]

[3] = tested on: cat fleas (Ctenocephalides felis), NC Fleas; assay: In vivo cat flea contact assay, NC fleas; conditions: contact with treated filter disk in vial, about 24-30 hours; mM = concentration of the DMSO solution, about 1 μL applied
Method: as §1, §2

[4] = tested on: houseflies (Musca domestica); assay: In vivo housefly contact assay; conditions: contact in coated glass test tube, about 24 hours; mM = concentration of the DMSO solution, about 1 μL applied
Method: This example describes an in vivo assay to screen compounds for their ability to kill houseflies via contact. Newly emerged houseflies (Musca domestica, available from Rincon-Vitova Insectaries, Inc., Ventura, Calif.) were sedated with carbon dioxide gas, collected in 50 mL polypropylene conical tubes containing filter paper saturated with 10% (w/w) sucrose in water, and allowed to feed at room temperature for about 2-4 hours. Test compounds were dissolved as in dimethylsulfoxide (DMSO) at concentrations ranging from about 0.05 mM to about 100 mM. About 1 μL of dissolved test compound and about 100 μL of isopropanol were dispensed into the bottom of a 9 mL screw-top glass test tube. Positive control test tubes were prepared in the same manner except that no test compounds were dissolved in the DMSO. Each test tube was rolled to coat the sides with the chemical solution, and allowed to air dry 24-48 hours. About 20 houseflies were sedated by refrigeration at 0-4° C. and transferred to each test tube. Each test tube was sealed with organdy cloth secured by an open top screw cap and laid horizontally in the dark. After about 24 hours, the healthy, moribund, and dead houseflies in each test tube were counted. The percentage of dead houseflies in each test tube was then calculated using the formula M=100(D−(FC/100))/(F−(FC/100)), in which M is the percentage of dead houseflies due to the addition of the test compound, D is the number of dead houseflies in the test tube, F is the total number of houseflies in the test tube, and C is the percentage of dead houseflies in the control test tubes.

| IC50 [2] | SMILES | IC50 (Housefly GABA receptors; displacement of 5.2 nM 3H-EBOB, housefly head neuronal membranes, about 45 min at about 24° C., read-out: IC50 (nM), Fly Head) | LC50 [1] | LD50 (mM), CO Fleas [1] | LD50 (mM), NC Fleas [3] | LD50 (mM), Flies [4] | Compounds with the most activity (housefly 3H-EBOB binding) (Housefly GABA receptors) |
| --- | --- | --- | --- | --- | --- | --- | --- |
| – | CC1(O)c2cn(-c3c(Cl)cc(C(F)(F)F)cc3Cl)nc2C(F)C1F (stereo not shown) [Compound 88, 2-[2,6-Dichloro-4-(trifluoromethyl)phenyl]-5,6-difluoro-4-methyl-2,4,5,6-tetrahydrocyclopenta[c]pyrazol-4-ol] | 350 nM | 5 mM | – | – | – | – |
| – | O=S1(=O)Cc2cn(-c3c(Cl)cc(C(F)(F)F)cc3Cl)nc2C1 [3″, 2-[2,6-Dichloro-4-(trifuoromethyl)phenyl]-4,6-dihydrothieno-[3,4-c]pyrazole-5,5-dione] | – | – | >100 mM | >100 mM | 5 mM | – |
| – | FC(F)(F)c1cc(Cl)c(-n2cc3c(n2)C2CCC3C2)c(Cl)c1 (stereo not shown) [Compound 35, 3,4-Diaza-4-[2,6-dichloro-4-(trifluoromethyl)phenyl]tricyclo-[5.2.1.0^2.6]deca-2,5-diene] | – | 17 mM | – | 12 mM | 48 mM | most activity |
| 1000 nM | FC(F)(F)c1cc(Cl)c(-n2cc3c(n2)CCC3(F)F)c(Cl)c1 [Compound 61, 2-[2,6-dichloro-4-(trifluoromethyl)phenyl]-4,4-difluoro-2,4,5,6-tetrahydrocyclopenta[c]pyrazole] | – | 5 mM | – | – | – | – |
| – | FC(F)(F)c1cc(Cl)c(-n2cc3c(n2)CCCC3)c(Cl)c1 [Compound 13, 2-[2,6-Dichloro-4-(trifluoromethyl)phenyl]-4,5,6,7-tetrahydro-2H-indazole] | – | 37.5 mM | – | 20 mM | >100 mM | most activity |
| 180 nM | FC1c2nn(-c3c(Cl)cc(C(F)(F)F)cc3Cl)cc2C(F)(F)C1F (stereo not shown) [Compound 89, 2-[2,6-Dichloro-4-(trifluoromethyl)phenyl]-4,4,5,6-tetrafluoro-2,4,5,6-tetrahydrocyclopenta[c]pyrazole] | – | < 0.5 mM | – | – | – | – |

| SMILES | IC50 [2] | IC50 (Housefly GABA receptors; displacement of 5.2 nM 3H-EBOB, housefly head neuronal membranes, about 45 min at about 24° C., read-out: IC50 (nM), Fly Head) | LC50 [1] | LD50 (mM), CO Fleas [1] | LD50 (mM), NC Fleas [3] | LD50 (mM), Flies [4] | Compounds with the most activity (housefly 3H-EBOB binding) (Housefly GABA receptors) |
| --- | --- | --- | --- | --- | --- | --- | --- |
| F[C@@H]1Cc2cn(-c3c(Cl)cc(C(F)(F)F)cc3Cl)nc2[C@@H]1F (relative stereo) [Compound 81, cis-2-[2,6-Dichloro-4-(trifluoromethyl)phenyl]-5,6-difluoro-2,4,5,6-tetrahydrocyclopenta[c]pyrazole] | 1000 nM | – | 1.5 mM | – | – | – | – |
